According to patent US9913838B2, “Methods of treating cancer using compositions comprising perillyl alcohol derivative” (NEONC TECHNOLOGIES INC., priority 2010, dated 2018):
Read-outs that look alike come from different tables or passages of the source. Each block holds one compound with its values, some of them ahead of it.

Key:
[1] = system: subcutaneous U-87 gliomas; assay: Nude mouse subcutaneous glioma model, local application; type: in vivo, nude mice; details: local application via Q-tip daily over 8 weeks; ranking in words
Procedure: Inhibition of tumor growth by butyryl-POH was studied in a nude mouse subcutaneous glioma model. Mice were injected with U-87 glioma cells (500,000 cells/injection) and allowed to form a palpable nodule over two weeks. Once palpable nodule was formed, the mice were treated with local application of various compounds as indicated in FIGS. 9A and 9B via a Q-tip (1 cc/application/day) over a period of 8 weeks.

MDA-MB-231 = assay: cells
Procedure: (§1) Depending on the cell line (and plating efficiency), 200-350 cells were seeded into each well of a 6-well plate. […] Thereafter, the drugs were removed, fresh growth medium was added, and the cells were kept in culture undisturbed for 12-16 days, during which time the surviving cells spawned colonies of descendants. Colonies (defined as groups of >50 cells) were visualized by staining for 4 hours with 1% methylene blue (in methanol), and then were counted.
(§2) In the case of O6-BG treatment, cells were pretreated with 10 μM O6-BG for one hour before addition of TMZ or TMZ-POH. After 24 hours, another 10 μM O6-BG was added to the medium. Another 24 hours later, drug-laced medium was removed, and fresh medium without drugs was added. Thereafter, cells remained undisturbed until staining with methylene blue.
(§3) The cytotoxic potency of TMZ-POH, was analyzed by colony formation assay (CFA) in a variety of human breast cancer cell lines and compared to the cytotoxicity of TMZ. We used estrogen receptor positive cells MCF7 and T47D, the triple-negative lines MDA-MB-231, MDA-MB-468, and HCC-1937, and a brain-seeking variant of the 231 cell line, MDA-MB-231-br.
Thus, we tested whether simply mixing the two compounds TMZ and POH could mimic the effects of the TMZ-POH conjugate. MDA-MB-231 cells were treated with the individual compounds (TMZ-POH, TMZ or POH) alone, or with an equimolar mix of TMZ plus POH, and cell survival was analyzed by CFA.

MDA-MB-468 = assay: Colony formation assay, MDA-MB-468; details: pre-treated with O6-BG for 60 minutes; MDA-MB-468
Procedure: as §1, §2, §3

MCF7 = assay: Colony formation assay, MCF7; details: pre-treated with O6-BG for 60 minutes; MCF7
Procedure: as §1, §2, §3

231-MGMT-1 = assay: Colony formation assay, MGMT-transfected 231-MGMT-1; type: cell-based, human; details: pre-treated with O6-BG for 60 minutes; 231-MGMT-1
Procedure: as §1, §2
(§4) MDA-MB-231 cells were co-transfected in 6-well plates with the use of Lipofectamine 2000 (Invitrogen, Carlsbad, Calif.) according to manufacturer's instructions. 2 μg pSV2MGMT (containing the human MGMT cDNA) was combined with 0.2 μg pSV2neo (containing the neomycin gene for selection of cells in G418). Both plasmids were provided by Bernd Kaina (Mainz, Germany). Individual clones of transfected cells were selected in medium containing 750 μg/mL G418 and propagated in 250 μg/mL G418. G418 was obtained as G418 disulfate salt from Sigma-Aldrich and dissolved in PBS at 75 mg/mL. Selection medium was removed from cells several days before experimental drug treatment.
(§5) To investigate the latter, we stably transfected MGMT-negative MDA-MB-231 cells with MGMT cDNA and isolated individual clones. […] Both clones were treated with increasing concentrations of TMZ-POH and TMZ and analyzed by CFA.

231-MGMT-2 = assay: Colony formation assay, MGMT-transfected 231-MGMT-2; type: cell-based, human; details: pre-treated with O6-BG for 60 minutes; 231-MGMT-2
Procedure: as §1, §2, §4, §5

MGMT = assay: Western blot of MGMT protein levels in MDA-MB-468 cells; type: cell-based, human; details: MDA-MB-468, 17 hours; in words
Procedure: In FIG. 21C, MDA-MB-468 cells were treated with the indicated concentrations of TMZ-POH, TMZ, or O6-BG for 17 hours before harvest of cellular lysates. vh.=cells treated with vehicle only.
(§6) Total cell lysates were analyzed by Western blot analysis as described in P. Pyrko et al. Downregulation of survivin expression and concomitant induction of apoptosis by celecoxib and its non-cyclooxygenase-2-inhibitory analog, dimethyl-celecoxib (DMC), in tumor cells in vitro and in vivo. Mol Cancer 5 (2006) 19. The primary antibodies were purchased from Cell Signaling Technology (Beverly, Mass.) or Santa Cruz Biotechnology, Inc. (Santa Cruz, Calif.) and used according to the manufacturers' recommendations. All immunoblots were repeated at least once to confirm the results.
The major cytotoxic DNA lesion set by TMZ is methylation of O6-guanine, and it is well known that removal of this methyl group by MGMT leads to rapid degradation of the DNA repair protein.

TMZ-resistant tumors = details: O6-BG and TMZ, cited from earlier work
[2] = system: TMZ sensitive (U251) cells; assay: Colony forming assay, TMZ sensitive U251 cells; type: cell-based, human; details: in words
Procedure: (§7) Colony forming assays were carried out after cells were treated with TMZ alone, POH alone, and the TMZ-POH conjugate. […] Cancer Lett. 2011 Mar. 28; 302(2):100-8.

[3] = system: TMZ resistant (U251TR) U251 cells; assay: Colony forming assay, TMZ resistant U251TR cells; type: cell-based, human; details: in words
Procedure: as §7

[4] = system: USC-02 glioma cancer stem cells; assay: MTT cytotoxicity assay, USC-02 glioma cancer stem cells; type: cell-based; details: TMZ 0-400 uM, POH 0-2 mM, in words
From the text: Cancer Lett. 2011 Mar. 28; 302(2):100-8.

[5] = system: γ-H2AX, activated caspase 7 and cleaved PARP; assay: DNA damage and cell death marker analysis in MDA-MB-231 cells (Western blot); type: cell-based, human; details: MDA-MB-231, 20 μM, after 5 days of treatment; in words
Procedure: FIGS. 25A-25B show DNA damage and cell death marker analysis, where MDA-MB-231 cells were used for Western blot analysis of expression levels for markers of DNA damage (γ-H2AX) and cell death (activated caspase 7 and cleaved PARP). In FIG. 25A, cells were treated with 15 μM TMZ-POH and harvested every 24 hours up to 6 days; control cells remained untreated, or received vehicle (vh.) only. In FIG. 25B, cells were treated with 20 μM of either TMZ-POH, TMZ, or POH individually, or with 20 μM TMZ combined with 20 μM POH (TMZ+POH) and harvested after 24 hours or 5 days; control cells remained untreated, or received vehicle (vh.) only. In the case of caspase 7, only the activated (cleaved) form is shown (cl. C-7).
as §6
It is known that GBM cells treated with physiological concentrations of TMZ (<100 μM) in vitro can survive for several (5-7) days seemingly unaffected before substantial cell death becomes apparent. We observed a similar phenotype when breast cancer cell lines were treated with TMZ-POH, i.e., cell cultures only began to deteriorate approximately a week after the onset of drug treatment. In order to characterize TMZ-POH-induced cell death in greater detail, we treated MDA-MB-231 cells with 15 μM of the drug and collected cell lysates daily over the course of 6 days. The lysates were analyzed by Western blot for the presence of two apoptosis markers, cleaved (i.e. activated) caspase 7 and cleaved PARP-1 (poly ADP-ribose polymerase-1), along with the DNA damage marker γ-H2AX.
As shown in FIGS. 20A-20B above, an equimolar combination of TMZ+POH was unable to achieve the same potency in blocking colony survival as the TMZ-POH conjugate. […] We treated cells with the same concentration (20 μM) of TMZ-POH, TMZ, POH, or TMZ combined with POH (TMZ+POH), and analyzed the induction of γ-H2AX, activated caspase 7, and cleaved PARP. […] Thus, the results from the cell survival assay (FIGS. 20A-20B) correlated closely with the effects of these compounds on DNA damage and apoptosis markers (FIG. 25B), and in all cases TMZ-POH clearly generated the strongest anticancer impact.

U87 human glioma cells = assay: MTT cytotoxicity assay, U87 glioma cells; details: for cytotoxicity (MTT assay): U87, result in words
From the text: (§8) In vitro efficacy of the present composition can be determined using methods well known in the art. For example, the cytoxicity of the present monoterpene (or sesquiterpene) and/or the therapeutic agents may be studied by MTT [3-(4,5-dimethylthiazol-2-yl)-2,5-diphenyl tetrazolium bromide] cytotoxicity assay. MTT assay is based on the principle of uptake of MTT, a tetrazolium salt, by metabolically active cells where it is metabolized into a blue colored formazon product, which can be read spectrometrically. J. of Immunological Methods 65: 55 63, 1983. The cytoxicity of the present monoterpene (or sesquiterpene) derivative and/or the therapeutic agents may be studied by colony formation assay. Functional assays for inhibition of VEGF secretion and IL-8 secretion may be performed via ELISA. Cell cycle block by the present monoterpene (or sesquiterpene) derivative and/or the therapeutic agents may be studied by standard propidium iodide (PI) staining and flow cytometry. Invasion inhibition may be studied by Boyden chambers. In this assay a layer of reconstituted basement membrane, Matrigel, is coated onto chemotaxis filters and acts as a barrier to the migration of cells in the Boyden chambers. Only cells with invasive capacity can cross the Matrigel barrier. Other assays include, but are not limited to cell viability assays, apoptosis assays, and morphological assays.
(§9) First cytotoxicity assays were carried out after cells were treated with dimethyl-celecoxib (DMC) alone.
(§10) Then U87, A172 and U251 cells were treated with dimethyl celecoxib bisPOH carbamate (POH−DMC) (e.g., synthesized by the method in Example 1), and the MTT cytotoxicity assays performed (FIG. 2).
(§11) First cytotoxicity assays were carried out after cells were treated with temozolomide (TMZ) alone, the standard alkylating agent used in the treatment of malignant gliomas.
(§12) Then TMZ-resistant glioma cell lines U87, A172 and U251 cells were treated with TMZ-POH (e.g., synthesized by the method in Example 3).
(§13) To compare the cytotoxicity of Rolipram POH Carbamate (POH-Rolipram) (e.g., synthesized by the method in Example 5) with rolipram, […] inducing differentiation and apoptosis in glioma cells, A172, U87, U251 and LN229 human glioma cells were treated with either POH-Rolipram or rolipram for 48 hours.

A172 human glioma cells = assay: MTT cytotoxicity assay, A172 glioma cells; details: for cytotoxicity (MTT assay): A172, result in words
From the text: as §8, §9, §10, §11, §12, §13

U251 human glioma cells = assay: MTT cytotoxicity assay, U251 glioma cells; details: for cytotoxicity (MTT assay): U251, result in words
From the text: as §8, §9, §10, §11, §12, §13
MTT cytotoxicity assays were carried out after cells were treated with the TMZ-POH conjugate. The MTT cytotoxicity assays were carried out as described in Chen T C, et al. Green tea epigallocatechin gallate enhances therapeutic efficacy of temozolomide in orthotopic mouse glioblastoma models. Cancer Lett. 2011 Mar. 28; 302(2):100-8.

LN229 human glioma cells = assay: cells
From the text: as §8, §13

Structure (SMILES): C=C(C)C1CC=C(COC(=O)CCC)CC1 (centres unmarked) [Butyryl-POH]
inhibition of tumor growth [1]: greatest inhibition of tumor growth

Structure (SMILES): Nc1nc(OCc2ccccc2)c2nc[nH]c2n1 [O6-BG, O6-benzylguanine, reference compound]
effect of O6-BG on survival of cells treated with TMZ-POH or TMZ (MDA-MB-231; pre-treated with O6-BG for 60 minutes, MDA-MB-231): had no effect | effect of O6-BG on cytotoxic outcome of TMZ-POH and TMZ treatment (MDA-MB-468): increased the cytotoxic outcome | effect of O6-BG on cytotoxic outcome of TMZ-POH and TMZ treatment (MCF7): increased the cytotoxic outcome | effect of O6-BG on toxicity of TMZ-POH and TMZ (231-MGMT-1): greatly enhanced toxicity | effect of O6-BG on toxicity of TMZ-POH and TMZ (231-MGMT-2): greatly enhanced toxicity | MGMT protein levels (MGMT): strongly decreases MGMT protein levels | fraction of patients with restored TMZ-sensitivity (TMZ-resistant tumors; patients with GBM, no significant effect): 3% | fraction of patients with restored TMZ-sensitivity (TMZ-resistant tumors; patients with anaplastic glioma): 16%

Structure (SMILES): C=C(C)C1CC=C(COC(=O)N(C(=O)OCC2=CCC(C(=C)C)CC2)S(=O)(=O)c2ccc(-n3nc(C(F)(F)F)cc3-c3cc(C)ccc3C)cc2)CC1 (centres unmarked) [POH−DMC]
cytotoxicity (MTT assay) (U87 human glioma cells): much better cytotoxicity than DMC alone | cytotoxicity (MTT assay) (A172 human glioma cells): much better cytotoxicity than DMC alone | cytotoxicity (MTT assay) (U251 human glioma cells): much better cytotoxicity than DMC alone

Continued, in another order:

IC50 (MDA-MB-231; Homo sapiens, MDA-MB-231, 48 h, read-out: IC50 (concentration required to decrease colony formation by 50%)): ~700 µM
Structure (SMILES): C=C(C)[C@@H]1CC=C(CO)CC1 [POH, Perillyl alcohol]
cytotoxicity (colony forming assay) [2]: demonstrated cytotoxicity | cytotoxicity (colony forming assay) [3]: demonstrated cytotoxicity | cytotoxicity (MTT assay) [4]: demonstrated cytotoxicity | concentrations required in order to become cytotoxic (MDA-MB-231): above 100 μM | induction of γ-H2AX, activated caspase 7, and cleaved PARP [5]: inactive

IC50 (LN229 human glioma cells; LN229 cells, 48 hours): 100 µM
Structure (SMILES): C=C(C)C1CC=C(COC(=O)N2CC(c3ccc(OC)c(OC4CCCC4)c3)CC2=O)CC1 (centres unmarked) [POH-rolipram, 4-(3-cyclopentyloxy-4-methoxyphenyl)-2-oxo-pyrrolidine-1-carboxylic acid 4-isopropenyl cyclohex-1-enylmethyl ester]
cytotoxicity (MTT assay) (U87 human glioma cells): substantially higher kill rates compared to rolipram alone | IC50 (U87 human glioma cells; U-87 cells, 48 hours): 180 µM | cytotoxicity (MTT assay) (A172 human glioma cells): substantially higher kill rates compared to rolipram alone | IC50 (A172 human glioma cells; A-172 cells, 48 hours): 50 µM | cytotoxicity (MTT assay) (U251 human glioma cells): substantially higher kill rates compared to rolipram alone | IC50 (U251 human glioma cells; U251 cells, 48 hours): 50 µM | cytoxicity (U251 human glioma cells; U251 cells, at 100 uM): ~100% | cytotoxicity (MTT assay) (LN229 human glioma cells): substantially higher kill rates compared to rolipram alone

IC50 (LN229 human glioma cells; Homo sapiens, LN-229, 48 h): > 100 µM
Structure (SMILES): COc1ccc(C2CNC(=O)C2)cc1OC1CCCC1 (centres unmarked) [rolipram, reference compound]
IC50 (U87 human glioma cells; Homo sapiens, U-87 MG, 48 h): > 1000 µM | IC50 (A172 human glioma cells; Homo sapiens, A 172, 48 h): ~1000 µM | IC50 (U251 human glioma cells; Homo sapiens, U-251, 48 h): 170 µM | plateau cytotoxicity (U251 human glioma cells; U251 cells): 60%
